Data as given in ChEMBL document CHEMBL4052743, “Oxindole-based intraocular pressure reducing agents” (Bioorg Med Chem Lett, 2017).
Active and inactive are the calls of the source. No cut-off for these calls is given here.

Experiments:
Oryctolagus cuniculus [1] = organism: Oryctolagus cuniculus; test: (§1) Reduction in intraocular pressure in Chinchilla rabbit assessed as maximal change in intraocular pressure at 0.1% after application of one drop (0.06 ml) of solution containing active compound/vehicle every hour (during 6 hours and after 24 hours) by automatic tonometry; type: functional; design: scale not given: the % may be the effect or the level left
Oryctolagus cuniculus [2] = organism: Oryctolagus cuniculus; test: as §1, with “maximum effective time required for reduction of intraaocular” for “maximal change in intraocular”; type: functional
[3] = Toxicity in rat; conditions: in vivo
Oryctolagus cuniculus [4] = organism: Oryctolagus cuniculus; test: as §1, with “maximum effective time required for reduction of intraaocular” for “maximal change in intraocular”, “hours) and measured after 24 hrs post dose” for “hours)”; type: functional
[5] = target: T1, Ribosyldihydronicotinamide dehydrogenase [quinone] (Homo sapiens, UniProt P16083); test: Inhibition of QR2 (unknown origin) using MTT and NMeH as substrates
T1 sequence (P16083 whole entry): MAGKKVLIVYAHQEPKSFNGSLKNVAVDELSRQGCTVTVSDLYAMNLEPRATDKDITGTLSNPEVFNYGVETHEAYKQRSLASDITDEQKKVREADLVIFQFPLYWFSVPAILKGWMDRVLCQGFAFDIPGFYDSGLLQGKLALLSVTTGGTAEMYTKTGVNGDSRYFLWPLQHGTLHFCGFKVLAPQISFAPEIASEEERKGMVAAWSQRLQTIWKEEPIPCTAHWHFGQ

[6] = target: T2, Ribosyldihydronicotinamide dehydrogenase [quinone] (Homo sapiens) (UniProt P16083); test: Inhibition of QR2 (unknown origin) using MTT and NMeH as substrates relative to control
T2 sequence (whole entry): T1 sequence (P16083 whole entry)

Oryctolagus cuniculus [7] = organism: Oryctolagus cuniculus; test: (§2) Reduction in intraocular pressure in Chinchilla rabbit assessed as maximal change in intraocular pressure at 0.1% after application of one drop (0.06 ml) of solution containing active compound/vehicle every hour (during 6 hours and after 24 hours) by applanation tonometry; type: functional; design: scale not given: the % may be the effect or the level left
Oryctolagus cuniculus [8] = organism: Oryctolagus cuniculus; test: as §2, with “maximum effective time required for reduction of intraaocular” for “maximal change in intraocular”; type: functional
Oryctolagus cuniculus [9] = organism: Oryctolagus cuniculus; test: Reduction in intraocular pressure in Chinchilla rabbit assessed as maximal change in intraocular pressure at 1% after application of one drop (0.06 ml) of solution containing active compound/vehicle every hour (during 6 hours and after 24 hours) by applanation tonometry; type: functional
[10] = Inhibition of MT-3 (unknown origin); design: species or system Homo sapiens
[11] = Binding affinity to MT-3 (unknown origin); design: species or system Homo sapiens
Oryctolagus cuniculus [12] = test: Reduction in intraocular pressure in New Zealand white rabbit at 100 mg/10 ml dosed via topical route measured after 0.5 to 6 hrs post dose by tonometry; type: functional; design: scale not given: the % may be the effect or the level left
Oryctolagus cuniculus [13] = organism: Oryctolagus cuniculus; test: Reduction in intraocular pressure in Chinchilla rabbit assessed as maximal change in intraocular pressure at 0.5% after application of one drop (0.06 ml) of solution containing active compound/vehicle every hour (during 6 hours and after 24 hours) by applanation tonometry; type: functional
Oryctolagus cuniculus [14] = organism: Oryctolagus cuniculus; test: as §1, with “maximum effective time required for reduction of intraaocular” for “maximal change in intraocular”, “hours) and measured after 6 hrs post dose” for “hours)”; type: functional
[15] = Solubility in water; type: physicochemical; conditions: buffer

| Structure (SMILES) | Activity (Oryctolagus cuniculus [1]) | Time (Oryctolagus cuniculus [2]) | LD50 [3] [mg/kg] | Activity (Oryctolagus cuniculus [4]) | further results |
| --- | --- | --- | --- | --- | --- |
| CCC(=O)Nc1cc(NC(=O)CC)c2c(c1)C(O)(CC#N)C(=O)N2 (stereo not drawn) | 29% | 4 h | > 2400 | inactive | – |
| COc1ccc2c(c1)C1(C(=O)N2)C2CCC(C2)C1CNC(C)=O (stereo not drawn) | inactive | inactive | > 2400 | inactive | IC50 [5]: 63 µM; Imax [6]: 59.6% |
| CC(=O)NCCc1cn(C)c2c(C)c(C)ccc12 | inactive | inactive | > 2400 | inactive | IC50 [5]: 4.5 µM; Imax [6]: 97.4% |
| COc1ccc2c(c1)C1(CC1CNC(C)=O)C(=O)N2C (stereo not drawn) | 10% | 2 h | > 2400 | inactive | IC50 [5]: 5.1 µM; Imax [6]: 93.9% |
| CC(=O)Nc1ccc2c(c1)C(O)(CC(=O)O)C(=O)N2 (stereo not drawn) | 18% | 2 h | > 2400 | inactive | – |
| CC(=O)Nc1ccc2c(c1)C(O)(CC#N)C(=O)N2 (stereo not drawn) | inactive | inactive | > 2400 | inactive | – |
| CCC(=O)Nc1cc(NC(=O)CC)c2c(c1)C(CC#N)(OC(=O)CC)C(=O)N2 (stereo not drawn) | 15% | 2 h | > 2400 | inactive | – |
| COc1ccc2[nH]c(Cl)c(CCNC(C)=O)c2c1 | inactive | inactive | > 2400 | inactive | IC50 [5]: 13 µM; Imax [6]: 91% |
| COc1ccc2[nH]cc(CCNC(C)=O)c2c1 [MELATONIN] | 26 - 31% | 3 h | – | inactive | Activity (Oryctolagus cuniculus [7]): 12%; Time (Oryctolagus cuniculus [8]): 4 h; Activity (Oryctolagus cuniculus [9]): inactive |
| CC(=O)NCCC1(O)C(=O)Nc2ccc(NC(C)=O)cc21 (stereo not drawn) | inactive | inactive | > 2400 | inactive | – |
| CC(=O)NCCC1C(=O)Nc2ccc(NC(C)=O)cc21 (stereo not drawn) | inactive | inactive | > 2400 | inactive | – |
| COc1cc(NC(C)=O)c2c(c1)C(CC#N)(OC(C)=O)C(=O)N2 (stereo not drawn) | 18% | 2 h | > 2400 | inactive | – |
| COc1ccc2c(c1)C(CC#N)C(=O)N2 (stereo not drawn) | inactive | inactive | > 2400 | inactive | – |
| N#CCC1C(=O)Nc2ccc(Br)cc21 (stereo not drawn) | inactive | inactive | > 2400 | inactive | – |
| CC(C)(C)NC[C@H](O)COc1nsnc1N1CCOCC1 [TIMOLOL] | 32% | 4 h | – | inactive | Activity (Oryctolagus cuniculus [7]): 11%; Time (Oryctolagus cuniculus [8]): 3 h |
| COC(=O)Nc1ccc2[nH]cc(CCNC(C)=O)c2c1 | – | – | – | – | IC50 [10]: 0.058 µM; Ki [11]: 0.065 µM; Activity (Oryctolagus cuniculus [12]): 45% |
| CC(=O)Nc1ccc2c(c1)C(CC#N)C(=O)N2 (stereo not drawn) | 22% | 4 h | > 2400 | inactive | – |
| CCOC(=O)C(C(=O)O)C1C(=O)Nc2ccc(OC)cc21 (stereo not drawn) | 18% | 4 h | > 2400 | inactive | – |
| COc1ccc2c(c1)c(CCNC(C)=O)cn2C | 8% | 2 h | > 2400 | inactive | IC50 [5]: 5.7 µM; Imax [6]: 102% |
| CC(=O)NCCC1C(=O)Nc2ccc(Br)cc21 (stereo not drawn) | inactive | inactive | > 2400 | inactive | IC50 [5]: 19 µM; Imax [6]: 29.9% |
| CC(=O)Nc1cc(NC(C)=O)c2c(c1)C(CC#N)(OC(C)=O)C(=O)N2 (stereo not drawn) | 21% | 2 h | > 2400 | inactive | Activity (Oryctolagus cuniculus [13]): Active; Activity (Oryctolagus cuniculus [9]): inactive |
| CC(=O)Nc1ccc2c(c1)C(CC(=O)O)C(=O)N2 (stereo not drawn) | 41% | 4 h | > 2400 | – | Activity (Oryctolagus cuniculus [14]): Active; solubility [15]: Soluble |
| CC(=O)Nc1ccc2c(c1)C(CC#N)C(=O)N2C (stereo not drawn) | inactive | inactive | > 2400 | inactive | – |
| CC(=O)Nc1cccc2c1NC(=O)C2CC#N (stereo not drawn) | inactive | inactive | > 2400 | inactive | – |
